Test results reported in article PMC8389922, “First-in-Class Cyclic Temporin L Analogue: Design, Synthesis, and Antimicrobial Assessment” (Journal of Medicinal Chemistry, 2021).
In brackets after ≈: the same amount, converted by molar mass. Bridge positions count the residues as written; N and C are the ends. Square brackets hold non-standard residues; d marks the D form. Peptide text beside a SMILES is read from it.

What was measured:
S. aureus ATCC 25923 = type: cell-based, Staphylococcus aureus
Procedure, shortened: (§1)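 MICs were determined by broth microdilution, with bacteria at a final 1 × 10^6 CFU/mL and peptides tested from 100 to 0.78 μM.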

A. baumannii ATCC 19606 = type: cell-based, Acinetobacter baumannii
Procedure, shortened: as §1

[1] = test system: S. epidermidis ATCC 12228; type: cell-based, Staphylococcus epidermidis
Procedure, shortened: as §1

B. megaterium Bm11 = type: cell-based, Bacillus megaterium
Procedure, shortened: as §1

E. coli ATCC 25922 = type: cell-based, Escherichia coli
Procedure, shortened: as §1

P. aeruginosa ATCC 27853 = type: cell-based, Pseudomonas aeruginosa
Procedure, shortened: as §1

[2] = CD spectroscopy, secondary structure content (DichroWeb); type: physicochemical; conditions: for helix-1 (regular α-helix) / helix-2 (distorted α-helix) / random / β-strand-1 (regular β-strand) / β-strand-2 (distorted β-strand) / β-turn: peptide 50 μM, 25 °C
Description: The secondary structures of the linear peptide 9 and its stapled analogues 12, 17, and 24–26 were explored by circular dichroism (CD). CD spectroscopy studies were performed in water, and SDS or DPC micelles (20 mM) were used as mimics of the bacterial or mammalian membranes, respectively.[60]
The secondary structure content was predicted based on the CD spectra from 190 to 260 nm using the online server for protein secondary structure analyses, DichroWeb.[61] […] The hydrocarbon-bridged peptide 25 was slightly helical and structured in water, with weak ellipticity at 220 nm. Peptide 25 contains ∼13% regular helix and ∼10% distorted helix, according to the DichroWeb prediction.
All spectra were measured in the 260–190 nm spectral range, 1 nm bandwidth, 4 accumulations, and 100 nm/min scanning speed.[60] Each peptide was dissolved in water to prepare a 1 mM peptide stock solution. The CD spectra were performed in water, in SDS (20 mM) and in DPC (20 mM) using a peptide concentration of 50 μM. The secondary structure content of the peptides was predicted using the online server for protein secondary structure analyses DichroWeb.[61] Input and output units and the wavelength step were θ (mdeg) and 1.0 nm, respectively. The algorithm used was CONTIN-LL,[83] and reference database was set-7. When we have NRMSD > 0.100, we used the CDSSTR method.[83]

[3] = Peptide aggregation in LPS (ThT fluorescence); type: physicochemical; conditions: peptide 20 μM, LPS 1 mg/mL, ThT 25 μM, 1 h incubation, ThT emission 482 nm
Description: The peptides were incubated with LPS (1 mg/mL) at a concentration of 20 μM, and ThT (25 μM) was used as a fluorophore to measure aggregation.
Figure 5 Aggregate formation in the interaction between peptides 9 (a), 12 (b), and 17 (c) (20 μM) and LPS (1 mg/mL) monitored by ThT fluorescence (25 μM). Peptide alone and ThT alone were used as controls.
After 1 h, we evaluated the peptide aggregation measuring ThT fluorescence emission at 482 nm (slit width, 5 nm) after excitation at 450 nm (slit width, 10 nm). ThT spectra at 25 μM, and peptide alone at 20 μM were carried out as control.

[4] = CD in DPC micelles (20 mM), DichroWeb
[5] = CD in SDS micelles (20 mM), DichroWeb
[6] = CD in water, DichroWeb (CONTIN-LL, set-7; CDSSTR if NRMSD > 0.100)

SMILES	MIC S. aureus ATCC 25923 (S. aureus ATCC 25923) [µM]	MIC A. baumannii ATCC 19606 (A. baumannii ATCC 19606) [µM]	MIC S. epidermidis ATCC 12228 [1] [µM]	MIC B. megaterium Bm11 (B. megaterium Bm11) [µM]	MIC E. coli ATCC 25922 (E. coli ATCC 25922) [µM]	MIC P. aeruginosa ATCC 27853 (P. aeruginosa ATCC 27853) [µM]	helix-1 (regular α-helix) [2, 4] [%]	helix-2 (distorted α-helix) [2, 4] [%]	random [2, 4] [%]	β-strand-1 (regular β-strand) [2, 4] [%]	β-strand-2 (distorted β-strand) [2, 4] [%]	β-turn [2, 4] [%]	helix-1 (regular α-helix) [2, 5] [%]	helix-2 (distorted α-helix) [2, 5] [%]	random [2, 5] [%]	β-strand-1 (regular β-strand) [2, 5] [%]	β-strand-2 (distorted β-strand) [2, 5] [%]	β-turn [2, 5] [%]	helix-2 (distorted α-helix) ([2]; CD in water, DichroWeb) [%]	random ([2]; CD in water, DichroWeb) [%]	also measured
CC[C@H](C)[C@H](NC(=O)[C@H](CCCNC(=N)N)NC(=O)[C@@H]1CCC(=O)NCCCC[C@H](NC(=O)[C@H](Cc2ccccc2)NC(=O)[C@H](Cc2c[nH]c3ccccc23)NC(=O)[C@@H]2CCCN2C(=O)[C@@H](NC(=O)[C@@H](N)Cc2ccccc2)C(C)C)C(=O)N[C@@H](CCCCN)C(=O)N[C@@H](Cc2ccccc2)C(=O)N[C@H](CC(C)C)C(=O)N1)C(=O)N[C@@H](CC(C)C)C(N)=O [compound 12] (H-FVPWFKKF[dL]ERIL-NH2; lactam 6-10)	3.12 (≈ 5.32 µg/mL)	3.12 (≈ 5.32 µg/mL)	3.12 (≈ 5.32 µg/mL)	1.56 (≈ 2.66 µg/mL)	25 (≈ 42.6 µg/mL)	100 (≈ 170 µg/mL)	54	21	13	1	4	7	58	24	5	0	3	10	2	55	helix percentage (total) in SDS solution ([2]; CD in SDS micelles (20 mM), DichroWeb, regular plus distorted helix): about 80%; β-strand-1 (regular β-strand) ([2]; CD in water, DichroWeb): 18%; β-strand-2 (distorted β-strand) ([2]; CD in water, DichroWeb): 8%; β-turn ([2]; CD in water, DichroWeb): 15%; helix-1 (regular α-helix) [2, 6]: 0%; aggregation in the presence of LPS [3]: lowest aggregation
CC[C@H](C)[C@H](NC(=O)[C@H](CCCNC(=N)N)NC(=O)[C@@H]1CCCCn2cc(nn2)C[C@H](NC(=O)[C@H](Cc2ccccc2)NC(=O)[C@H](Cc2c[nH]c3ccccc23)NC(=O)[C@@H]2CCCN2C(=O)[C@@H](NC(=O)[C@@H](N)Cc2ccccc2)C(C)C)C(=O)N[C@@H](CCCCN)C(=O)N[C@@H](Cc2ccccc2)C(=O)NC(CC(C)C)C(=O)N1)C(=O)N[C@@H](CC(C)C)C(N)=O (stereo in doubt) [compound 17]	3.12 (≈ 5.35 µg/mL)	25 (≈ 42.9 µg/mL)	1.56 (≈ 2.67 µg/mL)	1.56 (≈ 2.67 µg/mL)	>100	>100	38	18	19	9	7	10	32	16	16	13	7	15	4	49	β-strand-1 (regular β-strand) ([2]; CD in water, DichroWeb): 19%; β-strand-2 (distorted β-strand) ([2]; CD in water, DichroWeb): 9%; β-turn ([2]; CD in water, DichroWeb): 16%; helix-1 (regular α-helix) [2, 6]: 2%; aggregation in the presence of LPS [3]: higher ability to aggregate
